Reference: PMC10507085, “Pharmacological inhibition of TBK1/IKKε blunts immunopathology in a murine model of SARS-CoV-2 infection” (Nature Communications, 2023)

Columns and labels:
Assay in all cases: biochemical
Set-up in all cases: KINOMEscan competition binding, DNA-tagged kinase against immobilised ligand, qPCR read-out
Conditions in all cases: read-out: Percent Control
ACVRL1 = ACVRL1 (Homo sapiens, UniProt P37023)
ALK = ALK (Homo sapiens, UniProt Q9UM73)
ANKK1 = ANKK1 (Homo sapiens, UniProt Q8NFD2)
CDK2 = CDK2 (Homo sapiens, UniProt P24941)
CDK8 = CDK8 (Homo sapiens, UniProt P49336)
DCLK1 = DCLK1 (Homo sapiens, UniProt O15075)
DCLK1, sequence (O15075 whole entry): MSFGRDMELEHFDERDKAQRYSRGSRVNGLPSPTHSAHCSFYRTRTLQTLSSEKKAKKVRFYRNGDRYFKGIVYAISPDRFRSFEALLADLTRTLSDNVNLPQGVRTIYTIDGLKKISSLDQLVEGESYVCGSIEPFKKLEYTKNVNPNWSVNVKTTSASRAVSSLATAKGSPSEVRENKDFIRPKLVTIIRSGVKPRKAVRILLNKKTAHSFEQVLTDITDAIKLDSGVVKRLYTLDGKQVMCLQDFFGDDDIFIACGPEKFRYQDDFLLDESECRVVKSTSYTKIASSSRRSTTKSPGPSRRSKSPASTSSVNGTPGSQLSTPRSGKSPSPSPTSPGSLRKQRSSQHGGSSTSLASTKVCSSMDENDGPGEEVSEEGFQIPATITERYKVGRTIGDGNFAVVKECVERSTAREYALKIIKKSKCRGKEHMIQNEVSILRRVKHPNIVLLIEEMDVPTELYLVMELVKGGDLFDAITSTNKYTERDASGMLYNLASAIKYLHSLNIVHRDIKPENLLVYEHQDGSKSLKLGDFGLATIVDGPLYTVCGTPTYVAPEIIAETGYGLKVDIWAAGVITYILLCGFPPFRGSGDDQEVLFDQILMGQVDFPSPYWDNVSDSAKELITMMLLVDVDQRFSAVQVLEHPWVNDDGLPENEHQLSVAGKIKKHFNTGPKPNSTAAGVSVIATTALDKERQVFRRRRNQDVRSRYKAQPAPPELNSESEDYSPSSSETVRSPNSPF

GRK4 = GRK4 (Homo sapiens, UniProt P32298)
LIMK1 = LIMK1 (Homo sapiens, UniProt P53667)
LIMK1, sequence (P53667 whole entry): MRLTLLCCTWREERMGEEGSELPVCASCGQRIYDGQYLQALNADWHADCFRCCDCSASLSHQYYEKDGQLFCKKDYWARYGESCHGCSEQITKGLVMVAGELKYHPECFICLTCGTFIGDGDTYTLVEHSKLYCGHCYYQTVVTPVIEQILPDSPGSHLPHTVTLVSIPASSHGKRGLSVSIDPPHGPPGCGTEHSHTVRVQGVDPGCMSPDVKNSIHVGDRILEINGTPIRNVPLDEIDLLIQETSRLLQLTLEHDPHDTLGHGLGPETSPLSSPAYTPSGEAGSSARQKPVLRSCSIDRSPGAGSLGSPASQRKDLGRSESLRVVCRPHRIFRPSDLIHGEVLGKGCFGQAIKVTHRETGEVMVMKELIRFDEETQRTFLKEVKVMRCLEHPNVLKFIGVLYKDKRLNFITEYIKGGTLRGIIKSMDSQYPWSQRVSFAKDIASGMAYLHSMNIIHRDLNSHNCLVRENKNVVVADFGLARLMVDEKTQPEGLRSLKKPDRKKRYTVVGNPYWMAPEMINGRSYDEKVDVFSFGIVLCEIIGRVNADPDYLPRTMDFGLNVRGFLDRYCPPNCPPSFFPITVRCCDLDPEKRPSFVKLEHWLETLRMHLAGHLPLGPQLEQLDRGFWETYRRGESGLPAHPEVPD

MAP2K5 = MAP2K5 (Homo sapiens, UniProt Q13163)
NUAK2 = NUAK2 (Homo sapiens, UniProt Q9H093)
PIK3CG = PIK3CG (Homo sapiens, UniProt P48736)
PLK2 = PLK2 (Homo sapiens, UniProt Q9NYY3)
PRKD3 = PRKD3 (Homo sapiens, UniProt O94806)
[1] = molecular target: T1, RPS6KA5(Kin.Dom.2-C-terminal) (Homo sapiens, UniProt O75582)
T1 construct: Kin.Dom.2 C-terminal

SRPK3 = SRPK3 (Homo sapiens, UniProt Q9UPE1)
TEK = TEK (Homo sapiens, UniProt Q02763)
TLK1 = TLK1 (Homo sapiens, UniProt Q9UKI8)
TNIK = TNIK (Homo sapiens, UniProt Q9UKE5)
TNIK, sequence (Q9UKE5 whole entry): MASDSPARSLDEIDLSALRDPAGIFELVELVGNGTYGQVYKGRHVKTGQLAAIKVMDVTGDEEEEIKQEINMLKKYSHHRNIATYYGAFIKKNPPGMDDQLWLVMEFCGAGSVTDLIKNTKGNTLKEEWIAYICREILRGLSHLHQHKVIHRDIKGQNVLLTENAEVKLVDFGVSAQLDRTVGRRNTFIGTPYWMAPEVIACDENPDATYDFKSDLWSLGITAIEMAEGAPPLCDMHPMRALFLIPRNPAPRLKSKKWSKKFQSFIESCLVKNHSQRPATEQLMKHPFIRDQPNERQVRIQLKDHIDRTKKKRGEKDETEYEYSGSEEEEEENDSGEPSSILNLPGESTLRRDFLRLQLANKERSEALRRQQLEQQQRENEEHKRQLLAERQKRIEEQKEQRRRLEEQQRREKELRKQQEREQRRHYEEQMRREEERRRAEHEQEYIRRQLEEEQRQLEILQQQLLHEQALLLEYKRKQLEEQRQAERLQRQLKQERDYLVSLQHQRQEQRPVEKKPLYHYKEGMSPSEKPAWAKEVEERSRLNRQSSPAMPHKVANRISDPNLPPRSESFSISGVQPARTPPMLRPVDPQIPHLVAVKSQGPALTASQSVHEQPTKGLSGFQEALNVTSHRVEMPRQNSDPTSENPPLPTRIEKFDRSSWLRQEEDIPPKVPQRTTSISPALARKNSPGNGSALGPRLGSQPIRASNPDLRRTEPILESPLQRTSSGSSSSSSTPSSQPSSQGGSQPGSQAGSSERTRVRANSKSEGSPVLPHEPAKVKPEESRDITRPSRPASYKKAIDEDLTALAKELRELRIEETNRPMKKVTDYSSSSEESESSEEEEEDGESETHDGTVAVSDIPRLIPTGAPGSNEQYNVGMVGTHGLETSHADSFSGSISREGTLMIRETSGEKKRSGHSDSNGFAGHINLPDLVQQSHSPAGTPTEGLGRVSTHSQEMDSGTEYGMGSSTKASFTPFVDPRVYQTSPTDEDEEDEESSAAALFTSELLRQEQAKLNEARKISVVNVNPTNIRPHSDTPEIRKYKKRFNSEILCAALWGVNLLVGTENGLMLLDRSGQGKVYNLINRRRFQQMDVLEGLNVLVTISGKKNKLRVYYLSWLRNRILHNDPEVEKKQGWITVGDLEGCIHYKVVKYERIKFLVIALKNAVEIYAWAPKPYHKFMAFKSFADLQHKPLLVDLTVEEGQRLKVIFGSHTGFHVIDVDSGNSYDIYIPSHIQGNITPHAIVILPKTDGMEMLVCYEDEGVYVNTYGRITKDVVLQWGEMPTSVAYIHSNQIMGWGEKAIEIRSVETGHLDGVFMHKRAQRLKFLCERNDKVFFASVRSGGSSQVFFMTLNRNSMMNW

ULK1 = ULK1 (Homo sapiens, UniProt O75385)
ULK3 = ULK3 (Homo sapiens, UniProt Q6PHR2)

ALK, sequence (Q9UM73 whole entry): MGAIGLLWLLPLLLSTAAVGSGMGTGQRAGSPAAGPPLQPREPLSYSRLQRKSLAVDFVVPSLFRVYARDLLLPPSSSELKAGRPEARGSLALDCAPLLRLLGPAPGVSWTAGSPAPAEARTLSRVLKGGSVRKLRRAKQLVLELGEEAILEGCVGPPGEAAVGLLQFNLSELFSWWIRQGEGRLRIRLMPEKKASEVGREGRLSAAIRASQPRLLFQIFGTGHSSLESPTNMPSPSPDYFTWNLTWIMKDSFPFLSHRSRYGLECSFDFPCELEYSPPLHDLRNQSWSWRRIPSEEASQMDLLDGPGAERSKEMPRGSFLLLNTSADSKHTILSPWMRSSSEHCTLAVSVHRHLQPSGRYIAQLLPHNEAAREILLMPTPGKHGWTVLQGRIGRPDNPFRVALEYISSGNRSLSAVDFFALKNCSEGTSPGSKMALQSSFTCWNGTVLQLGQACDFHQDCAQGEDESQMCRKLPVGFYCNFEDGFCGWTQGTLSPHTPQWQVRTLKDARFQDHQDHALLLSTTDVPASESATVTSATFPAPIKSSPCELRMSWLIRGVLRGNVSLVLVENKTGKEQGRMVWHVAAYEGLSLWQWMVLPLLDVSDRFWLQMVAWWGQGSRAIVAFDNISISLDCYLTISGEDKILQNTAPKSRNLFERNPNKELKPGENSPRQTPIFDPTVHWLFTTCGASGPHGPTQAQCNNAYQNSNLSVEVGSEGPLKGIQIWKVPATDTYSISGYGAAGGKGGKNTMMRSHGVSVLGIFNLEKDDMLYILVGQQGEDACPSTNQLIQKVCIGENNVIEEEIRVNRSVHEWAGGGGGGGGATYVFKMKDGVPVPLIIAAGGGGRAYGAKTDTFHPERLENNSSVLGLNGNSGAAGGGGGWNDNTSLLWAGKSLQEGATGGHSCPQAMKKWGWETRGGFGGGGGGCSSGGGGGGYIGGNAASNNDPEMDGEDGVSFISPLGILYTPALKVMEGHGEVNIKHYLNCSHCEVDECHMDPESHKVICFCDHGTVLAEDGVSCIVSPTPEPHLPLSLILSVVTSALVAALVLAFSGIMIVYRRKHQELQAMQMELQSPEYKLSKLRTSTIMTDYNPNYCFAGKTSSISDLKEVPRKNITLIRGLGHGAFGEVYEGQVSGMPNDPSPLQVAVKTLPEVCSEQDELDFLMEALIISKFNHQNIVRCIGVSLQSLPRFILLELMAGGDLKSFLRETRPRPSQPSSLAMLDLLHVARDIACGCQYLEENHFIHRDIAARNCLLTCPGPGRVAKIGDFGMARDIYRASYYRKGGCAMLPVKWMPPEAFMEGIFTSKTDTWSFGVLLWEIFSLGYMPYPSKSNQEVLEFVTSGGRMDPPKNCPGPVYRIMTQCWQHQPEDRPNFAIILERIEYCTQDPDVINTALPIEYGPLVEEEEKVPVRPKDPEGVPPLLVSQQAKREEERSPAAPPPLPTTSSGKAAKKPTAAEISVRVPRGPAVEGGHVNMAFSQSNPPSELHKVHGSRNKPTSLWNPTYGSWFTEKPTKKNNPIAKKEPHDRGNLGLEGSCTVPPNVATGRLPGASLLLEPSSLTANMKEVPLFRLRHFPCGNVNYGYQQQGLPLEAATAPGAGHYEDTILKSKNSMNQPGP
ACVRL1, sequence (P37023 whole entry): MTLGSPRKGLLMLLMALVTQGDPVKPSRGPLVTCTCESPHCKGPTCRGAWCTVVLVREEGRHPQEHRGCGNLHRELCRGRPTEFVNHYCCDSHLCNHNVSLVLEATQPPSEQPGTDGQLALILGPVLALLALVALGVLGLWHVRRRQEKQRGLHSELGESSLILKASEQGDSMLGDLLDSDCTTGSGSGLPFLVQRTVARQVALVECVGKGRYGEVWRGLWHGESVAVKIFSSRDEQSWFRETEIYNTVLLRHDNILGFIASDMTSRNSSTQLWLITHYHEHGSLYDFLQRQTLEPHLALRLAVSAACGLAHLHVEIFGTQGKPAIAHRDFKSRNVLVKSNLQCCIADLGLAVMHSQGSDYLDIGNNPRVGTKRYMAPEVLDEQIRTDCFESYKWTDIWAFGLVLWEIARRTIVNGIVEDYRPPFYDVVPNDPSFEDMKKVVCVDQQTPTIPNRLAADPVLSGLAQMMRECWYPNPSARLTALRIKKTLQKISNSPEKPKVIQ

For Oc1ccc(C2=Cc3ccc(O)cc3OC2)cc1 [compound 1, idronoxil], which remaining binding at 10 µM (ACVRL1) is on record?
The remaining binding at 10 µM was 92%.

What about the remaining binding at 10 µM (ALK) of the same molecule?
The remaining binding at 10 µM was 68%.

And the remaining binding at 10 µM (ANKK1)?
Its remaining binding at 10 µM is 66%.

What about the remaining binding at 10 µM (CDK2) of the same molecule?
Its remaining binding at 10 µM is 92%.

And the remaining binding at 10 µM (CDK8)?
Its remaining binding at 10 µM is 58%.

What about the remaining binding at 10 µM (DCLK1) of the same molecule?
The remaining binding at 10 µM was 100%.

What about the remaining binding at 10 µM (GRK4) of the same molecule?
The remaining binding at 10 µM was 68%.

What about the remaining binding at 10 µM (LIMK1) of the same molecule?
The remaining binding at 10 µM was 89%.

And the remaining binding at 10 µM (MAP2K5)?
The remaining binding at 10 µM was 62%.

What about the remaining binding at 10 µM (NUAK2) of the same molecule?
Its remaining binding at 10 µM is 68%.

What about the remaining binding at 10 µM (PIK3CG) of the same molecule?
The remaining binding at 10 µM was 79%.

And the remaining binding at 10 µM (PLK2)?
Its remaining binding at 10 µM is 80%.

And the remaining binding at 10 µM (PRKD3)?
Its remaining binding at 10 µM is 85%.

And the remaining binding at 10 µM [1]?
The remaining binding at 10 µM was 100%.

And the remaining binding at 10 µM (SRPK3)?
Its remaining binding at 10 µM is 94%.

And the remaining binding at 10 µM (TEK)?
Its remaining binding at 10 µM is 96%.

And the remaining binding at 10 µM (TLK1)?
The remaining binding at 10 µM was 71%.

And the remaining binding at 10 µM (TNIK)?
The remaining binding at 10 µM was 56%.

And the remaining binding at 10 µM (ULK1)?
The remaining binding at 10 µM was 89%.

What about the remaining binding at 10 µM (ULK3) of the same molecule?
Its remaining binding at 10 µM is 78%.
